Reference: patent US20200283384A1, “ANTIBACTERIAL COMPOUNDS AND METHODS OF USE THEREOF” (Wayne State University, priority 2016, published 2020)
Values after ≈ are worked out from the molar mass of the structure shown. Where two headings read alike, the source gives them in different places.

Experiments:
[1] = system: 24 strains of S. aureus (SA1-SA24); test: Broth micro-dilution MIC against 24 strains of S. aureus; assay type: cell-based; settings: for MIC: Staphylococcus aureus, read-out: Compound MIC
Method: Compounds were tested for their anti-bacterial activity against 56 clinical isolates including 24 clinical isolates of methicillin resistant S. aureus (MRSA) and methicillin-susceptible S. aureus (MSSA), 8 strains of Enterococcus, 8 strains of Acinetobacter baumannii, 8 strains of Klebsiella pneumoniae, and 8 strains of Pseudomonas aeruginosa using a standard broth micro-dilution method as recommended by the Clinical and Laboratory Standard Institute (CLSI, M100, s23).
HN18 HN19, and HN34 were tested by a broth micro-dilution method to determine their minimal inhibitory concentration (MIC) against 24 strains of S. aureus (SA1-SA24) (Table 2). […]. Furthermore, the results for HN18 and HN34 were consistent across four repeated experiments. […]

[2] = system: methicillin-resistant S. aureus clinical isolates (MRSA); S. aureus (K1902); test: Plasmid curing at sub-inhibitory concentration; assay type: cell-based, Staphylococcus aureus
Method: Plasmid curing was performed per Trevors (Trevors, 1986 Plasmid curing in bacteria. FEMS Microbiology, 32: 149-157). In brief, the clinical isolate was grown in the presence of HN18 and HN34 at the specified concentration for 18 h at 35° C. and then plated on Muller Hinton agar (MHA) plates to obtain isolated colonies. The isolated colonies were then replica plated onto MHA and MHA plates containing antibiotics. […] The percentage curing efficiency was expressed as the number of colonies with cured phenotype per 100 colonies tested. For plasmid extraction, 5 ml of an overnight culture of S. aureus strain was centrifuged and cells were subjected to 1 ml lysostaphin (20 μg/ml) for 1 hour at 35° C. prior to DNA extraction. Extraction of DNA was carried using QIAprep Spin Miniprep Kit (Qiagen) per manufacturer's instruction. DNA profile analysis was carried out by electrophoresis on 1.5% agarose gel.
The methicillin-resistant S. aureus clinical isolates (MRSA) growing in the presence of sub-inhibitory concentrations of HN18 and HN34 were taken for the evaluation for the loss of plasmids as described above. A culture control without a curing agent was also maintained in the curing experiment to estimate the rate of spontaneous loss of plasmids under these conditions. HN18 and HN34 eliminated the plasmid mediated antibiotic resistance markers with varying curing efficiencies (Table 3). HN18 cured plasmids from SA1, SA2, SA7 and SA8 at frequency in the range of 13-100%. HN34 also cured plasmids from SA1, SA2, SA7 and SA8 strains with 30%-100% curing efficiency.
Plasmid curing activity of HN18 and HN34 was also evaluated in S. aureus (K1902) which is known to harbor a 5 kb plasmid with a chloramphenicol resistance gene. Along with the KSA reference strain, the plasmid curing activity was repeated for SA1 and SA2 strains which are MRSA (Table 4).

[3] = system: S. aureus clinical isolates; test: Synergistic effect with oxacillin (oxacillin MIC alone and in presence of SIC); assay type: cell-based, Staphylococcus aureus
Method: The synergistic effect (interaction) of HN18 and HN34 with different antibiotics against S. aureus clinical isolates was studied. The oxacillin MIC values of 8 clinical isolates of Staphylococcus aureus were determined. The oxacillin MIC of the same isolates were also determined after they were exposed to SIC of HN18, HN34 (Table 5). […] Column 2 and 3 show the oxacillin MIC value of the same isolates in presence of SIC of HN18 and HN34 respectively.

[4] = Table 3, isolate SA1, at SIC, lack of growth in presence of M, Ox (4 μg/ml)
[5] = Table 3, isolate SA2, at SIC, lack of growth in presence of M, Ox (4 μg/ml)
[6] = Table 3, isolate SA3, at SIC, lack of growth in presence of M, Ox (4 μg/ml)
[7] = Table 3, isolate SA4, at SIC, lack of growth in presence of M, Ox (4 μg/ml)
[8] = Table 3, isolate SA5, at SIC, lack of growth in presence of M, Ox (4 μg/ml)
[9] = Table 3, isolate SA6, at SIC, lack of growth in presence of M, Ox (4 μg/ml)
[10] = Table 3, isolate SA7, at SIC, lack of growth in presence of M, Ox (4 μg/ml)
[11] = Table 3, isolate SA8, at SIC, lack of growth in presence of M, Ox (4 μg/ml)

Structure (SMILES): Cc1[nH]c2ccccc2c1C(c1ccc(F)c(F)c1)c1c(C)[nH]c2ccccc12 [HN34]
- Effect against the panel of S. aureus strains ([1]; 24 strains SA1-SA24, broth micro-dilution): effective
- MIC ([1]; isolate SA1, experiment I): 1 µg/mL (≈ 2.59 µM)
- MIC ([1]; isolate SA1, experiment II): 2 µg/mL (≈ 5.18 µM)
- MIC ([1]; isolate SA1, experiment III): 1 µg/mL (≈ 2.59 µM)
- MIC ([1]; isolate SA1, experiment IV): 1 µg/mL (≈ 2.59 µM)
- MIC ([1]; isolate SA2, experiment I): 2 µg/mL (≈ 5.18 µM)
- MIC ([1]; isolate SA2, experiment II): 2 µg/mL (≈ 5.18 µM)
- MIC ([1]; isolate SA2, experiment III): 1 µg/mL (≈ 2.59 µM)
- MIC ([1]; isolate SA2, experiment IV): 1 µg/mL (≈ 2.59 µM)
- MIC ([1]; isolate SA3, experiment I): 2 µg/mL (≈ 5.18 µM)
- MIC ([1]; isolate SA3, experiment II): 2 µg/mL (≈ 5.18 µM)
- MIC ([1]; isolate SA3, experiment III): 2 µg/mL (≈ 5.18 µM)
- MIC ([1]; isolate SA3, experiment IV): 2 µg/mL (≈ 5.18 µM)
- MIC ([1]; isolate SA4, experiment I): 2 µg/mL (≈ 5.18 µM)
- MIC ([1]; isolate SA4, experiment II): 2 µg/mL (≈ 5.18 µM)
- MIC ([1]; isolate SA4, experiment III): 2 µg/mL (≈ 5.18 µM)
- MIC ([1]; isolate SA5, experiment I): 1 µg/mL (≈ 2.59 µM)
- MIC ([1]; isolate SA5, experiment II): 2 µg/mL (≈ 5.18 µM)
- MIC ([1]; isolate SA5, experiment III): 1 µg/mL (≈ 2.59 µM)
- MIC ([1]; isolate SA5, experiment IV): 2 µg/mL (≈ 5.18 µM)
- MIC ([1]; isolate SA6, experiment I): 1 µg/mL (≈ 2.59 µM)
- MIC ([1]; isolate SA6, experiment II): 1 µg/mL (≈ 2.59 µM)
- MIC ([1]; isolate SA6, experiment III): 1 µg/mL (≈ 2.59 µM)
- MIC ([1]; isolate SA6, experiment IV): 1 µg/mL (≈ 2.59 µM)
- MIC ([1]; isolate SA7, experiment I): 1 µg/mL (≈ 2.59 µM)
- MIC ([1]; isolate SA7, experiment II): 1 µg/mL (≈ 2.59 µM)
- MIC ([1]; isolate SA7, experiment III): 1 µg/mL (≈ 2.59 µM)
- MIC ([1]; isolate SA7, experiment IV): 1 µg/mL (≈ 2.59 µM)
- MIC ([1]; isolate SA8, experiment I): 2 µg/mL (≈ 5.18 µM)
- MIC ([1]; isolate SA8, experiment II): 2 µg/mL (≈ 5.18 µM)
- MIC ([1]; isolate SA8, experiment III): 2 µg/mL (≈ 5.18 µM)
- MIC ([1]; isolate SA8, experiment IV): 2 µg/mL (≈ 5.18 µM)
- MIC ([1]; isolate SA9, experiment I): 0.5 µg/mL (≈ 1.29 µM)
- MIC ([1]; isolate SA10, experiment I): 1 µg/mL (≈ 2.59 µM)
- MIC ([1]; isolate SA11, experiment I): 1 µg/mL (≈ 2.59 µM)
- MIC ([1]; isolate SA12, experiment I): 1 µg/mL (≈ 2.59 µM)
- MIC ([1]; isolate SA13, experiment I): 1 µg/mL (≈ 2.59 µM)
- MIC ([1]; isolate SA14, experiment I): 0.25 µg/mL (≈ 0.647 µM)
- MIC ([1]; isolate SA15, experiment I): 1 µg/mL (≈ 2.59 µM)
- MIC ([1]; isolate SA16, experiment I): 1 µg/mL (≈ 2.59 µM)
- MIC ([1]; isolate SA17, experiment I): 1 µg/mL (≈ 2.59 µM)
- MIC ([1]; isolate SA18, experiment I): 1 µg/mL (≈ 2.59 µM)
- MIC ([1]; isolate SA19, experiment I): 1 µg/mL (≈ 2.59 µM)
- MIC ([1]; isolate SA20, experiment I): 2 µg/mL (≈ 5.18 µM)
- MIC ([1]; isolate SA21, experiment I): 1 µg/mL (≈ 2.59 µM)
- MIC ([1]; isolate SA22, experiment I): 1 µg/mL (≈ 2.59 µM)
- MIC ([1]; isolate SA23, experiment I): 1 µg/mL (≈ 2.59 µM)
- MIC ([1]; isolate SA24, experiment I): 1 µg/mL (≈ 2.59 µM)
- Plasmid band in agarose gel of cured derivatives ([2]; S. aureus K1902, FIG. 3): absent
- Susceptibility of isolates after exposure to SIC ([2]; SA1 and SA2 to oxacillin, KSA to chloramphenicol): became susceptible
- Curing efficiency I [2, 4]: 100%
- Curing efficiency II [2, 4]: 100%
- Curing efficiency I [2, 5]: 100%
- Curing efficiency II [2, 5]: 70%
- Curing efficiency I [2, 6]: 0%
- Curing efficiency II [2, 6]: 0%
- Curing efficiency I [2, 7]: 100%
- Curing efficiency II [2, 7]: 0%
- Curing efficiency I [2, 8]: 0%
- Curing efficiency II [2, 8]: 0%
- Curing efficiency I [2, 9]: 0%
- Curing efficiency II [2, 9]: 0%
- Curing efficiency I [2, 10]: 50%
- Curing efficiency II [2, 10]: 30%
- Curing efficiency I [2, 11]: 40%
- Curing efficiency II [2, 11]: 63.33%
- Curing efficiency (%) ([2]; Table 4, KSA (S. aureus K1902), experiment I, lack of growth in presence of Cm (10 μg/ml)): 33.3%
- Curing efficiency (%) ([2]; Table 4, KSA (S. aureus K1902), experiment II, lack of growth in presence of Cm (10 μg/ml)): 50%
- Curing efficiency (%) ([2]; Table 4, isolate SA1, experiment I, lack of growth in presence of M, Ox (4 μg/ml)): 100%
- Curing efficiency (%) ([2]; Table 4, isolate SA2, experiment I, lack of growth in presence of M, Ox (4 μg/ml)): 96.6%
- Synergistic activity in combination with oxacillin ([3]; S. aureus clinical isolates, compound at SIC): did not show synergistic activity
- Oxacillin MIC in presence of SIC of the compound (1 μg/ml) ([3]; isolate SA3, experiment I): >16 µg/mL
- Oxacillin MIC in presence of SIC of the compound (1 μg/ml) ([3]; isolate SA3, experiment II): >16 µg/mL
- Oxacillin MIC in presence of SIC of the compound (1 μg/ml) ([3]; isolate SA4, experiment I): >16 µg/mL
- Oxacillin MIC in presence of SIC of the compound (1 μg/ml) ([3]; isolate SA4, experiment II): >16 µg/mL
- Oxacillin MIC in presence of SIC of the compound (1 μg/ml) ([3]; isolate SA5, experiment I): 16 µg/mL
- Oxacillin MIC in presence of SIC of the compound (1 μg/ml) ([3]; isolate SA5, experiment II): >16 µg/mL
- Oxacillin MIC in presence of SIC of the compound (1 μg/ml) ([3]; isolate SA9, experiment I): >16 µg/mL
- Oxacillin MIC in presence of SIC of the compound (1 μg/ml) ([3]; isolate SA9, experiment II): >16 µg/mL
- Oxacillin MIC in presence of SIC of the compound (1 μg/ml) ([3]; isolate SA10, experiment I): 16 µg/mL
- Oxacillin MIC in presence of SIC of the compound (1 μg/ml) ([3]; isolate SA10, experiment II): 16 µg/mL
- Oxacillin MIC in presence of SIC of the compound (1 μg/ml) ([3]; isolate SA11, experiment I): 16 µg/mL
- Oxacillin MIC in presence of SIC of the compound (1 μg/ml) ([3]; isolate SA11, experiment II): 8 µg/mL
- Oxacillin MIC in presence of SIC of the compound (1 μg/ml) ([3]; isolate SA15, experiment I): 16 µg/mL
- Oxacillin MIC in presence of SIC of the compound (1 μg/ml) ([3]; isolate SA15, experiment II): >16 µg/mL
- Oxacillin MIC in presence of SIC of the compound (1 μg/ml) ([3]; isolate SA18, experiment I): >16 µg/mL
- Oxacillin MIC in presence of SIC of the compound (1 μg/ml) ([3]; isolate SA18, experiment II): >16 µg/mL
